From US20110282028A1, “METHOD FOR IDENTIFYING INHIBITORS OF LIPOTEICHOIC ACID SYNTHASE” (UNIVERSITY OF NEWCASTLE UPON TYNE, priority 2008, published 2011)

Legend:
Assay type in all cases: cell-based, B. subtilis
[1] = test system: ltaS mutant (strain 4286); test: Sensitivity to cations, dilutions spotted on NA plates, ltaS mutant; details: 37° C.
Experimental: (§1) FIG. 3—Effect of metal ion concentration of viability of wild-type and ltaS mutants: A. Growth of wild-type (168) and ltaS mutant (strain 4286) at 37° C. in on NA plates without additives (left), containing 0.5 mM Mg^2+ (middle) or with addition of 0.05 mM Mn^2+ (right). B. Growth of ltaS mutant (strain 4283, left) and wild-type (strain 168, right) on minimal medium plates containing 10, 100 and 500 μM Mg^2+ as indicated.
(§2) Liquid cultures of B. subtilis strains were grown in Difco Antibiotic Medium 3 (PAB), CH medium (Nicholson & Setlow, 1990), or S-medium (Karamata & Gross, 1970) at 37° C. Nutrient agar (Oxoid) plates were used for growth on solid medium, Modified Salts Medium plates with defined Mg^2+ concentrations were prepared as described previously (Carballido-López et al., 2006). The given concentration of Mg^2+ was achieved by addition of MgSO4 to the medium. DNA manipulations and B. subtilis strains were transformed according to the method of Anagnostopoulos and Spizizen (1961) as modified by Jenkinson (1983). Selection for B. subtilis transformants was carried out on nutrient agar (Oxoid), supplemented with antibiotics, as required, with: kanamycin ([…]) chloramphenicol ([…]), erythromycin ([…] ml^−1), lincomycin ([…] ml^−1) and/or spectinomycin ([…]). […]

wild-type (168) = test: Sensitivity to cations, dilutions spotted on NA plates, wild-type; details: 0.05 mM MnSO4 added to nutrient agar (NA), 37° C.
Experimental: as §1, §2

ltaS mutant [2] = test: Zone of inhibition on solid medium, ltaS mutant compared with wild-type; details: data not shown
Text: (§3) In the process of constructing the deletion strain, we noticed that the ltaS mutant was also hyper-sensitive to various antibiotics and lysozyme. […] In other experiments on solid medium the zone of inhibition of all antibiotics tested (kanamycin, ampicillin, vancomycin, penicillin, spectinomycin, erythromycin, lincomycin, carbenicillin) was wider for the ltaS mutant than for the wild-type (not shown). […] The general increase in sensitivity of the mutant to antibiotics and lysozyme is consistent with the notion that LTA also provides a protective layer that restricts the access of many bioactive agents to sensitive sites in the cell envelope.

ltaS mutant [3] = test: Susceptibility of ltaS mutant to lysozyme; details: data not shown
Text: as §3

Compound | zone of inhibition for the ltaS mutant versus the wild-type (ltaS mutant [2]) | further results
O=S(=O)([O-])[O-].[Mg+2] [Mg^2+, MgSO4] | – | growth of the ltaS mutant ([1]; 0.5 mM Mg^2+ added to nutrient agar (NA)): no effect
O=S(=O)([O-])[O-].[Mn+2] [MnSO4] | – | growth of the ltaS mutant ([1]; 0.05 mM MnSO4 added to nutrient agar (NA)): abolished growth; growth of the wild-type (wild-type (168)): unaffected
CC1(C)S[C@@H]2[C@H](NC(=O)[C@H](N)c3ccccc3)C(=O)N2[C@H]1C(=O)O [ampicillin] | wider | –
CC1(C)S[C@@H]2[C@H](NC(=O)C(C(=O)O)c3ccccc3)C(=O)N2[C@H]1C(=O)O (some centres unmarked) [carbenicillin] | wider | –
CC[C@H]1OC(=O)[C@H](C)[C@@H](O[C@H]2C[C@@](C)(OC)[C@@H](O)[C@H](C)O2)[C@H](C)[C@@H](O[C@@H]2O[C@H](C)C[C@H](N(C)C)[C@H]2O)[C@](C)(O)C[C@@H](C)C(=O)[C@H](C)[C@@H](O)[C@]1(C)O [erythromycin] | wider | –
CCC[C@@H]1C[C@@H](C(=O)N[C@@H]([C@H]2O[C@H](SC)[C@H](O)[C@@H](O)[C@H]2O)[C@@H](C)O)N(C)C1 [lincomycin] | wider | –
CN[C@@H]1[C@H](O)[C@H](NC)[C@H]2O[C@@]3(O)C(=O)C[C@@H](C)O[C@H]3O[C@@H]2[C@H]1O [spectinomycin] | wider | –
CN[C@H](CC(C)C)C(=O)N[C@H]1C(=O)N[C@@H](CC(N)=O)C(=O)N[C@H]2C(=O)N[C@H]3C(=O)N[C@H](C(=O)N[C@H](C(=O)O)c4cc(O)cc(O)c4-c4cc3ccc4O)[C@H](O)c3ccc(c(Cl)c3)Oc3cc2cc(c3O[C@@H]2O[C@H](CO)[C@@H](O)[C@H](O)[C@H]2O[C@H]2C[C@](C)(N)[C@H](O)[C@H](C)O2)Oc2ccc(cc2Cl)[C@H]1O [vancomycin] | wider | –
lysozyme | – | susceptibility of the ltaS mutant to lysozyme (ltaS mutant [3]): increased susceptibility
penicillin | wider | –
